Key:
Test in all cases: Test C flooded paddy test
Type in all cases: in vivo
[1] = test system: barnyardgrass (Echinochloa crus-galli); details: Flood; for Plant response rating (scale of 0 to 100), Barnyardgrass: 0 is no effect, 100 is complete control
Method in brief: (§1)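 Rice, small-flower umbrella sedge, ducksalad and barnyardgrass at the 2-leaf stage were flooded to 3 cm, and compound was applied into the paddy water. After 13 to 15 d in a greenhouse, plants were rated visually against controls on a 0 (no effect) to 100 (complete control) scale.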

[2] = test system: ducksalad (Heteranthera limosa); details: Flood; for Plant response rating (scale of 0 to 100), Ducksalad: 0 is no effect, 100 is complete control
Method in brief: as §1

[3] = test system: sedge, umbrella (small-flower umbrella sedge, Cyperus difformis); details: Flood; for Plant response rating (scale of 0 to 100), Sedge, Umbrella: 0 is no effect, 100 is complete control
Method in brief: as §1

[4] = 31 g ai/ha, scale 0 to 100 (0 no effect, 100 complete control), 13 to 15 d

CN1CC(c2cc(F)cc(F)c2)C(C(=O)Nc2cccc(F)c2F)C1=O (stereo not drawn) [Compound 644]
Plant response rating, Barnyardgrass [1, 4]: 40 | Plant response rating (scale of 0 to 100), Barnyardgrass ([1]; 62 g ai/ha): 60 | Plant response rating (scale of 0 to 100), Barnyardgrass ([1]; 125 g ai/ha): 75 | Plant response rating (scale of 0 to 100), Barnyardgrass ([1]; 250 g ai/ha): 90 | Plant response rating, Ducksalad [2, 4]: 55 | Plant response rating (scale of 0 to 100), Ducksalad ([2]; 62 g ai/ha): 65 | Plant response rating (scale of 0 to 100), Ducksalad ([2]; 125 g ai/ha): 100 | Plant response rating (scale of 0 to 100), Ducksalad ([2]; 250 g ai/ha): 100 | Plant response rating, Sedge, Umbrella [3, 4]: 0 | Plant response rating (scale of 0 to 100), Sedge, Umbrella ([3]; 62 g ai/ha): 0 | Plant response rating (scale of 0 to 100), Sedge, Umbrella ([3]; 125 g ai/ha): 0 | Plant response rating (scale of 0 to 100), Sedge, Umbrella ([3]; 250 g ai/ha): 0
